Experimental data reported in ChEMBL document CHEMBL3779890, “Novel prodrugs with a spontaneous cleavable guanidine moiety” (Bioorg Med Chem Lett, 2016).
In brackets after ≈: the same amount, converted by molar mass. Values belong to the compound of their own block, whether it stands above or below them.

Columns and labels:
[1] = Prodrug conversion in PBS assessed as half life for 50% release of Phenytoin in pH 7.4 at 37 degC after 1 hr by ESI-mass spectrometry; assay type: ADME; conditions: buffer, pH 7.4, 1 h
[2] = Solubility of the compound in water at room temperature after 15 mins by HPLC analysis; assay type: physicochemical
[3] = Prodrug conversion in PBS assessed as half life for 50% release of Quinine in pH 7.4 at 37 degC after 1 hr by ESI-mass spectrometry; assay type: ADME; conditions: buffer, pH 7.4, 1 h
[4] = Stability of the compound in methanol-CH3CN at 4 degC after 1 month by HPLC analysis; assay type: physicochemical; conditions: 730.5 h
[5] = Prodrug conversion in PBS assessed as half life for 50% release of Quinine in pH 7.4 at 37 degC by ESI-mass spectrometry; assay type: ADME; conditions: buffer, TDE = time-dependent effect
[6] = Prodrug conversion in PBS assessed as half life for 50% release of ritonavir in pH 7.4 at 37 degC after 1 hr by ESI-mass spectrometry; assay type: ADME; conditions: buffer, pH 7.4, 1 h
[7] = Prodrug conversion in PBS assessed as half life for 50% release of Sulfathiazole in pH 7.4 at 37 degC after 1 hr by ESI-mass spectrometry; assay type: ADME; conditions: buffer, pH 7.4, 1 h
[8] = Prodrug conversion in PBS assessed as half life for 50% release of 2-Aminobenzimidazole in pH 7.4 at 37 degC after 1 hr by ESI-mass spectrometry; assay type: ADME; conditions: buffer, pH 7.4, 1 h

Compound: CN(CC(=O)N1C(=O)NC(c2ccccc2)(c2ccccc2)C1=O)C(=N)N.O=C(O)C(F)(F)F
t1/2 [1]: 0.78 min

Compound: Nc1ccc(S(=O)(=O)Nc2nccs2)cc1.O=C(O)C(F)(F)F
solubility at 0.25 h [2]: 1.4 µg/mL

Compound: C[C@H](NC(=N)N)C(=O)N1C(=O)NC(c2ccccc2)(c2ccccc2)C1=O.O=C(O)C(F)(F)F
t1/2 [1]: 1.1 min

solubility at 0.25 h [2]: 6.3 µg/mL (≈ 25 µM)
Compound: O=C1NC(=O)C(c2ccccc2)(c2ccccc2)N1 [PHENYTOIN]

Compound: C=C[C@@H]1CN2CC[C@H]1C[C@H]2[C@H](OC(=O)CCNC(=N)N)c1ccnc2ccc(OC)cc12.O=C(O)C(F)(F)F
t1/2 [3]: 1.1 min
solubility at 0.25 h [2]: > 10000 µg/mL
Stability [4]: Stable

Compound: C=C[C@@H]1CN2CC[C@H]1C[C@H]2[C@H](OC(=O)CCCN)c1ccnc2ccc(OC)cc12.O=C(O)C(F)(F)F
t1/2 [3]: 102 min
Drug metabolism [5]: tde

t1/2 [6]: 42 h
Compound: CC(C)c1nc(CN(C)C(=O)N[C@H](C(=O)N[C@@H](Cc2ccccc2)C[C@H](O)[C@H](Cc2ccccc2)NC(=O)OCc2cncs2)C(C)C)cs1 [RITONAVIR]

Compound: C[C@H](NC(=N)N)C(=O)Nc1ccc(S(=O)(=O)Nc2nccs2)cc1.O=C(O)C(F)(F)F
t1/2 [7]: 40 min
solubility at 0.25 h [2]: 7100 µg/mL
Stability [4]: Stable

Compound: C=C[C@@H]1CN2CC[C@H]1C[C@H]2[C@H](OC(=O)CNC(=N)N)c1ccnc2ccc(OC)cc12.O=C(O)C(F)(F)F
t1/2 [3]: < 1 min

Compound: N=C(N)NCC(=O)N1C(=O)NC(c2ccccc2)(c2ccccc2)C1=O.O=C(O)C(F)(F)F
t1/2 [1]: 13 min
solubility at 0.25 h [2]: 10200 µg/mL
Stability [4]: Stable

Compound: N=C(N)NCC(=O)Nc1nc2ccccc2[nH]1.O=C(O)C(F)(F)F
t1/2 [8]: 38 min
